According to patent US20230340061A1, “PEPTIDES AND METHODS FOR THE TREATMENT OF MULTIPLE SCLEROSIS” (IMCYSE SA, priority 2020, published 2023):

How the values were obtained:
[1] = test system: CD4+ T cells of patients with multiple sclerosis; assay: Generation of antigen specific CD4+ T cells, CD154 (CD40L) expression by flow cytometry; type: cell-based, human
Procedure: PBMCs were isolated from blood samples of patients with multiple sclerosis treated by dimethyl fumarate (DMF) on Lymphoprep density gradients.
CD14+ monocytes were isolated from these PBMCs by performing positive immunomagnetic separation with CD14 microbeads (Miltenyi Biotec, 130-050-201) according to the supplier recommendations. CD14+ monocytes were cultured for six days and maturated to generate autologous dendritic cells (mDC). CD19+ B cells were isolated from the CD14- PBMCs fraction by performing positive immunomagnetic separation with CD19 microbeads (Miltenyi Biotec, 130-050-301) according to the supplier recommendations. CD19+ B cells were cultured and immortalized with EBV to generate autologous lymphoblastoid cell lines (LCL).
(§1) Naïve CD4+ T cells were also purified from the CD14- PBMCs fraction by performing negative immunomagnetic separation with naïve CD4+ T cell isolation kit (Miltenyi Biotec, 130-094-131) according to the supplier recommendations. Naïve CD4+ T cells were co-cultured with autologous mDC or LCL in the presence of P2 and P4 peptides. The CD4+ T cells were re-stimulated periodically, about every 10-12 days.
The ability of the peptides to generate antigen specific CD4+ T cells was evaluated by flow cytometry analysis of the TCR induced surface activation marker CD154 (CD40L) expression after overnight co-culture at resting state with autologous LCL without (no peptide) or with the peptides (P2 or P4). The surface expression of the lytic marker Fas ligand (CD178) was also evaluated by flow cytometry analysis after overnight co-culture at resting state with autologous LCL without (no peptide) or with the peptide (P4).

[2] = test system: CD4+ T cells of patients with multiple sclerosis; assay: Cytokine secretion in CD4+ T cell culture supernatants (LEGENDplex Human Th Panel); type: cell-based; conditions: for specific secretion of cytokine (IL-5): culture supernatant of MS017 (S15) CD4+ cell line, P4 vs C-WT epitope peptides
Source text: as §1
The ability of the peptides to induce cytokines secretion in CD4+ T cells culture supernatants was evaluated by flow cytometry analysis after overnight co-culture at resting state with autologous mDC without (no peptide) or with the peptides (P2 or P4). Supernatants were analyzed with the LEGENDplex Human Th Panel (13-plex) (BioLegend, 740721) according to the supplier recommendations.

[3] = test system: Experimental Auto-Immune Encephalomyelitis (EAE); assay: Therapeutic administration in MOG35-55-induced EAE; type: in vivo; conditions: 30 μg s.c. with alum, days 4, 9, 14, 19
Procedure: The study used a total of 48 female C57BL/6 mice (Taconic Biosciences, 9 weeks old on Day 0). Mice were acclimated for 7 days prior to the first injection. Mice were assigned to groups in a balanced manner to achieve similar average weight across the groups at the start of the study.
Dosing of all mice was performed once on each of the days indicated in Table 2, s.c., at a volume of 0.05 mL/site, each mouse receiving injection at two sites, for a total of 0.1 mL/mouse/dosing day. IMCY-0189 or P4 peptide total dose was 30 μg per administration.
Lyophilized immunogenic peptide IMCY-0189 with the sequence […] (SEQ ID NO: 260), comprising an oxidoreductase motif HCPYC (SEQ ID NO: 24), a linker GW, a murine Myelin Oligodendrocyte Glycoprotein (MOG35-55) MHCII T cell epitope […] (SEQ ID NO: 261) and a flanking sequence HLYR (SEQ ID NO: 262) (Smart Bioscience) was solubilized immediately before use. Lyophilized IMCY-0189 was thawed at room temperature for 10 minutes, resuspended in Na Acetate buffer 50 mM NaCl 0.9% pH 5.4 and incubated at room temperature for 10 minutes. Reconstituted peptide was then mixed with Imject™ Alum Adjuvant before injection.
Lyophilized immunogenic peptide P4 with the sequence […] (SEQ ID NO: 27), comprising an oxidoreductase motif KHCPYC (SEQ ID NO: 50), a linker VRY, a human Myelin Oligodendrocyte Glycoprotein (MOG201-212) MHCII T cell epitope […] (SEQ ID NO: 2) and a flanking sequence TLFKK (SEQ ID NO: 263) (Smart Bioscience) was solubilized immediately before use. Lyophilized P4 was thawed at room temperature for 10 minutes, resuspended in Na Acetate buffer 50 mM NaCl 0.9% pH 5.4 and incubated at room temperature for 10 minutes. Reconstituted peptide was then mixed with Imject™ Alum Adjuvant before injection.
EAE was induced in all mice as follows: • Day 0, Hour 0—Immunization with a peptide corresponding to the amino acids 35-55 of MOG (MOG35-55)/CFA • Day 0, Hour 2—Injection of pertussis toxin • Day 1, Hour 0—2nd injection of pertussis toxin (24 hours after initial immunization).
Mice were injected subcutaneously at two sites in the back with the emulsion component (containing MOG35-55) of Hooke Kit™ MOG35-55/CFA Emulsion PTX, catalog number EK-2110 (lot #131, Hooke Laboratories, Lawrence MA). One site of injection was in the area of upper back, approximately 1 cm caudal of the neck line. The second site was in the area of lower back, approximately 2 cm cranial of the base of the tail. The injection volume was 0.1 mL at each site. Each mouse received 200 μg of MOG35-55.
Within 2 hours of the injection of emulsion, and then again 24 hours after the injection of emulsion, the pertussis toxin component of the kit was administered intraperitoneally. The pertussis toxin (lot #1008, Hooke Laboratories) was administered at 90 ng/dose for both injections and the volume of each injection was 0.1 mL.
Animals were scored daily starting from Day 7 to the end of the study. Scoring was performed blind, by a person unaware of both treatment and of previous scores for each mouse. In-between scores were assigned when the clinical signs fell between two above defined scores.
On Day 28, blood was collected from all mice into gel clot activator tubes and allowed to clot at room temperature for ˜30 minutes. Blood is then centrifuged at ˜10000 g for 5 minutes. Serum was transferred into Eppendorf tubes and stored at −80° C. until shipment to Quanterix™. Serum Neurofilament light (NF-L) protein levels were quantified using Simoa® NF-light Advantage kit, a digital immunoassay for the quantitative determination of NF-L in serum, plasma and CSF. The used antibodies (Uman Diagnostics, Umea Sweden) also cross react with murine, bovine and macaque NF-L epitopes and as such, this assay can be used for research with these species. All samples were tested in duplicate at a dilution factor of 40×. […]

[4] = test system: Experimental Auto-Immune Encephalomyelitis (EAE); assay: Prophylactic administration in adoptive-transfer EAE; type: in vivo, mice; conditions: 100 μg s.c. with alum, days −21, −14, −7, +2, +9
Procedure: EAE was induced in recipient mice by immunizing donor B6.SJL mice with MOG35-55/CFA, and then, 11 days later, by taking their spleens and restimulating them in culture with MOG35-55 peptide for 3 days. Those cells, now fully encephalitogenic, were injected on Day 0 into recipient groups of mice, which developed EAE.
B6.SJL donor mice were acclimated for 13 days before the start of the study and were 9 weeks old at the time of immunization. Donor mice were used to generate encephalitogenic cells as follows: • Day −14: Immunization with MOG35-55/CFA. • Day −3: Spleen harvest. Mice were euthanized and spleens were harvested, pooled and cell suspension prepared. Cell suspension, at 4 to 5 million cells/mL in T150 flasks, were set up in cultures in the presence of MOG35-55 peptide (20 μg/mL), IL-12 ([…]) and anti-IFNγ (7 μg/mL) for 3 days to generate encephalitogenic T cells. • Day 0: Cell collection and transfer. Cells were collected and spun down, resuspended in RPM11640 (no FCS), counted, and injected into recipient mice at 10 million cells per mouse.
Recipient mice were acclimated for 6 days prior to the first injection and were 6 weeks old when treatment started (on Day −21). Mice were assigned to groups in a balanced manner, to achieve similar average weight across the groups at the start of the study.
Dosing of all mice was performed once on each of the days indicated in Table 4, s.c., at a volume of 0.05 mL/site, each mouse receiving injection at two sites, for a total of 0.1 mL/mouse/dosing day, corresponding to 100 μg of peptide.
For Vehicle treatment, Imject™ Alum solution was prepared at each dosing day. IMCY-0189 has the sequence described in example 6. Lyophilized IMCY-0189 was thawed at room temperature for 10 minutes, resuspended in Na Acetate buffer 50 mM pH 5.4 and incubated at room temperature for 5 minutes. Reconstituted peptide was then mixed with Imject™ Alum Adjuvant before injection.
At termination, blood was collected from all mice into tubes containing K2EDTA and mixed gently. Blood was then centrifuged at ˜10000 g for 5 minutes. Plasma was transferred into Eppendorf tubes and stored at −80° C. until shipment to Quanterix™. Plasma Neurofilament light (NF-L) protein levels were quantified using Simoa© NF-light Advantage kit as described in example 6.
EAE scoring, terminal collection, histology analyses and statistical analyses were performed as described in example 6.

[5] = target: T1, soluble HLA-DRB1*04:01 human MHC II protein (human); assay: soluble-phase competition vs biotin-labelled control peptide, Eu3+-streptavidin time-resolved fluorescence
T1 construct: Soluble protein purchased from the Benaroya Research Institute; also called HLA-DR4; DR4

[6] = target: T2, soluble HLA-DRB1*03:01 human MHC II protein (human); assay: as above
T2 construct: Soluble protein purchased from the Benaroya Research Institute; also called HLA-DR3; DR3

“DPHFLRVPCWKITLFKK [short C-WT, reference compound]” was tested, and the “specific induction of effector cells (CD3+CD4+CD154+)” value ([1]; P4-specific CD4+ cell lines of patients MS017 (S14) and MS026 (S13), overnight co-culture) was “specific induction” and the “specific secretion of cytokine (IL-5)” value [2] was “specific secretion”.

With HCPYCGWYRSPFSRVVHLYR [IMCY-0189] the mortality ([3]; to day 28) was “No mice died”, the “AUC (area under the curve) of EAE scores” value ([3]; vs Saline group) was “statistically significant reduced” and the “MMS (mean maximal score)” value ([3]; vs Saline group) was “statistically significant reduced”. The disease onset ([3]; vs Saline group) was “postponed”, the “level of demyelination (anti-MBP stained spinal cord sections)” value ([3]; vs Saline group) was “statistically significantly reduced level” and the “level of inflammation (inflammatory foci, H&E stained spinal cord sections)” value ([3]; vs Saline group) was “statistically significantly reduced level”. The “serum NF-L levels” value ([3]; Day 28, vs Saline group) was “statistically significant reduced”, the end score ([3]; EAE score 0-5, vs Saline group) was “reduced” and the mortality [4] was “No mice died”. The “AUC (area under the curve) of EAE scores” value ([4]; vs Alum group) was “statistically significantly improved”, the “MMS (mean maximal score)” value ([4]; vs Alum group) was “statistically significantly improved” and the disease onset ([4]; vs Alum group) was “statistically significantly improved”. For the same molecule, the end score ([4]; vs Alum group) was “statistically significantly improved”, the “level of demyelination (anti-MBP stained spinal cord sections)” value ([4]; vs Alum group) was “statistically significantly reduced level” and the “level of inflammation (inflammatory foci, H&E stained spinal cord sections)” value ([4]; vs Alum group) was “statistically significantly reduced level”. The “plasma NF-L levels” value ([4]; at termination, vs Alum group) was “statistically significantly reduced”.

For HCPYCVRYFLRVPSWKITLF [P2], the “generation of peptide-specific CD4+ T cell lines from MS patients” value ([1]; naive CD4+ T cells co-cultured with autologous mDC or LCL in presence of peptide) was “able to generate P2-specific CD4+ T cell lines from four different MS patients”, the “frequency of effector cells (CD3+CD4+CD154+)” value ([1]; patients' CD4+ cell lines, overnight co-culture with autologous LCL with peptide vs no peptide) was “high frequency” and the “specific secretion of cytokines (IL-5 and IL-13)” value ([2]; culture supernatant of MS026 CD4+ cell line (S11)) was “specific secretion”.

“QYRLRGKLRAEIENLHRTFDPHFLRVPCWKITLFVIVPVLGP [long C-WT, reference compound]” was tested, and the “specific secretion of cytokine (IL-5)” value [2] was “specific secretion”.

KHCPYCVRYFLRVPSWKITLFKK (Synthetic) [P4 peptide KHCPYCVRYFLRVPSWKITLFKK]: binds [5]; binds [6].

KHCPYCVRYFLRVPCWKITLFKK (Synthetic) [P5 peptide KHCPYCVRYFLRVPCWKITLFKK]: binds [5]; binds [6].

B1: P8 peptide KHCHGCVRYFLRVPSWKITLFKK (peptide)
peptide: KHCHGCVRYFLRVPSWKITLFKK
notes: P4 with the motif KHCPYC replaced by KHCHGC
B1: binds [5]; binds [6].

B2: P10 peptide KCRPYCVRYFLRVPSWKITLFKK (peptide)
peptide: KCRPYCVRYFLRVPSWKITLFKK
notes: P4 with the motif KHCPYC replaced by KCRPYC
B2: binds [5]; binds [6].

B3: P1 peptide HCHGCGGFLRVPCWKI (peptide)
peptide: HCHGCGGFLRVPCWKI
notes: Synthetic; disclosed in WO2017182528; also called control P1 peptide; prior art peptide P1
B3: binds [5]; binds [6].

HCHGCVRYFLRVPCWKI (P1 with the linker GG replaced by VRY) [P6 peptide HCHGCVRYFLRVPCWKI]: binds [5]; binds [6].

B4: P7 peptide HCPYCGGFLRVPCWKI (peptide)
peptide: HCPYCGGFLRVPCWKI
notes: P1 with the motif HCHGC replaced by HCPYC
B4: binds [5]; binds [6].

KHCPYCGGFLRVPSWKITLFKK (P4 with the linker VRY replaced by GG) [P11 peptide KHCPYCGGFLRVPSWKITLFKK]: binds [5]; binds [6].

B5: P9 peptide KCRCVRYFLRVPSWKITLFKK (peptide)
peptide: KCRCVRYFLRVPSWKITLFKK
notes: P4 with the motif KHCPYC replaced by KCRC
B5: binds [5]; binds [6].
